In ChEMBL document CHEMBL2417537, “Synthesis and antifungal activity of terpenyl-1,4-naphthoquinone and 1,4-anthracenedione derivatives” (Eur J Med Chem, 2013):
In brackets after ≈: the same amount, converted by molar mass. Activity calls are given as the source filed them. No cut-off for these calls is given here.

Legend:
[1] = test system: Candida parapsilosis; assay: Antifungal activity against Candida parapsilosis ATCC 22019 after 24 hrs; assay type: functional; conditions: ATCC 22019, 24 h
[2] = test system: Pichia kudriavzevii; assay: Antifungal activity against Candida krusei ATCC 6258 after 24 hrs; assay type: functional; conditions: ATCC 6258, 24 h
[3] = Selectivity index, ratio of IC50 for african green monkey Vero cells to IC50 for Aspergillus flavus ATCC 204304; assay type: toxicity, cell-based; conditions: read-out: Ratio IC50
[4] = test system: Candida parapsilosis; assay: Antifungal activity against Candida parapsilosis ATCC 22019 at > MIC up to 24 hrs by time kill study; assay type: functional, organism-based
[5] = test system: Trichophyton mentagrophytes; assay: Antifungal activity against Trichophyton mentagrophytes ATCC 24198 after 6 days; assay type: functional; conditions: ATCC 24198, 144 h
[6] = test system: Aspergillus fumigatus; assay: Antifungal activity against Aspergillus fumigatus ATCC 204305 after 48 hrs; assay type: functional; conditions: ATCC 204305, 48 h
[7] = test system: Trichophyton rubrum; assay: Antifungal activity against Trichophyton rubrum ATCC 28188 after 6 days; assay type: functional; conditions: ATCC 28188, 144 h
[8] = test system: Vero; assay: Cytotoxicity against african green monkey Vero cells after 48 hrs by MTT assay; assay type: cell-based; conditions: Chlorocebus sabaeus
[9] = test system: Aspergillus flavus; assay: Antifungal activity against Aspergillus flavus ATCC 204304 after 48 hrs; assay type: functional; conditions: ATCC 204304, 48 h
[10] = test system: Aspergillus niger; assay: Antifungal activity against Aspergillus niger ATCC 16404 after 48 hrs; assay type: functional; conditions: ATCC 16404, 48 h
[11] = test system: Fusarium oxysporum; assay: Antifungal activity against Fusarium oxysporum ATCC 48112 after 48 hrs; assay type: functional; conditions: ATCC 48112, 48 h
[12] = test system: Candida tropicalis; assay: Antifungal activity against Candida tropicalis ATCC 200956 after 24 hrs; assay type: functional; conditions: ATCC 200956, 24 h
[13] = test system: Candida parapsilosis; assay: Antifungal activity against Candida parapsilosis ATCC 22019 at 0.5 MIC up to 24 hrs by time kill study; assay type: functional, organism-based
[14] = Selectivity index, ratio of IC50 for african green monkey Vero cells to IC50 for Candida parapsilosis ATCC 22019; assay type: toxicity, cell-based
[15] = test system: Aspergillus terreus; assay: Antifungal activity against Aspergillus terreus CDC 317 after 48 hrs; assay type: functional; conditions: CDC 317, 48 h
[16] = test system: Candida tropicalis; assay: Antifungal activity against Candida tropicalis CECT 11901 after 24 hrs; conditions: CECT 11901, 24 h
[17] = test system: Candida albicans; assay: Antifungal activity against Candida albicans ATCC 10231 after 24 hrs; assay type: functional; conditions: ATCC 10231, 24 h
[18] = Selectivity index, ratio of IC50 for african green monkey Vero cells to IC50 for Candida lusitaniae ATCC 200951; assay type: toxicity, cell-based; conditions: read-out: Ratio IC50
[19] = test system: Clavispora lusitaniae; assay: Antifungal activity against Candida lusitaniae ATCC 200951 after 24 hrs; assay type: functional; conditions: ATCC 200951, 24 h
[20] = test system: Candida albicans; assay: Antifungal activity against Candida albicans ATCC 90028 after 24 hrs; assay type: functional; conditions: ATCC 90028, 24 h
[21] = Selectivity index, ratio of IC50 for african green monkey Vero cells to IC50 for Candida krusei ATCC 6258; assay type: toxicity, cell-based; conditions: read-out: Ratio IC50

Structure (SMILES)	MIC90 [1] [µg/mL]	MIC90 [2] [µg/mL]	selectivity ratio [3]	Activity [4]	MIC90 [5] [µg/mL]	MIC90 [6] [µg/mL]	MIC90 [7] [µg/mL]	IC50 [8] [µg/mL]	MIC90 [9] [µg/mL]	further results
C[C@@H]1[C@H](O)[C@@H](C)/C=C/C=C/C=C/C=C/C=C/C=C/C=C/[C@H](O[C@@H]2O[C@H](C)[C@@H](O)[C@H](N)[C@@H]2O)C[C@@H]2O[C@](O)(C[C@@H](O)C[C@@H](O)[C@H](O)CC[C@@H](O)C[C@@H](O)CC(=O)O[C@H]1C)C[C@H](O)[C@H]2C(=O)O [AMPHOTERICIN B]	2 (≈ 2.16 µM)	2 (≈ 2.16 µM)	7.1	Active	< 0.004	2 (≈ 2.16 µM)	< 0.004	28.6 (≈ 30.9 µM)	4 (≈ 4.33 µM)	
CC1(C)CCCc2cc3c(cc21)C(=O)C(Cl)=C(Cl)C3=O	2 (≈ 6.47 µM)	1 (≈ 3.23 µM)	> 5.2	Active	6.1 (≈ 19.7 µM)	8 (≈ 25.9 µM)	8 (≈ 25.9 µM)	≤ 25	4.8 (≈ 15.5 µM)	MIC90 [10]: > 32 µg/mL; MIC90 [11]: > 32 µg/mL; MIC90 [12]: 5 µg/mL (≈ 16.2 µM); Activity [13]: inactive; selectivity ratio [14]: > 12.5; MIC90 [15]: > 32 µg/mL; MIC90 [16]: > 32 µg/mL; MIC90 [17]: > 32 µg/mL; selectivity ratio [18]: > 12.5; MIC90 [19]: 2 µg/mL (≈ 6.47 µM); MIC90 [20]: 8 µg/mL (≈ 25.9 µM); selectivity ratio [21]: > 25
